System: IL-1β production in PMA-differentiated THP-1 cells
Experiment: IL-1β production in PMA-differentiated THP-1 cells stimulated with gramicidin (hTHP-1 assay, 2% fetal bovine serum; Procedures 1-3)
Assay type: cell-based, human
Details: Homo sapiens, THP-1, hTHP-1 assay containing 2% fetal bovine serum, Table B2, class symbols; read-out: IC50
Method in brief: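 PMA-primed THP-1 cells (20 ng/ml PMA, 16-18 h) in RPMI with 2% FBS were pre-incubated with compounds for 1 h, from 100 μM downward in 3-fold steps (0.37% DMSO final), then stimulated with 5 μM gramicidin for 2 h. IL-1β in the supernatant was quantified by HTRF.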

Row | IC50 | SMILES
1 | 1000 to 5000 nM | NS(=O)(=NC(=O)Nc1c2c(cc3c1CCC3)CCC2)c1ccc(C2CCCN2)cc1 (single isomer, unassigned) [Example 648, (R,R) or (S,R)-N′-((1,2,3,5,6,7-hexahydro-s-indacen-4-yl)carbamoyl)-4-(pyrrolidin-2-yl) benzenesulfonimidamide]
2 | 200 to 1000 nM | CN(C)C(c1ccc(S(N)(=O)=NC(=O)Nc2c3c(cc4c2CCC4)CCC3)cc1)C(F)(F)F (single isomer, unassigned) [Example 664]

Same assay, conditions: Homo sapiens, THP-1, hTHP-1 assay containing 2% fetal bovine serum, Table B2, given as bound; read-out: IC50

Row | IC50 | SMILES
3 | > 30000 nM | CC(OC(F)F)c1ccc(S(N)(=O)=NC(=O)Nc2c3c(cc4c2CCC4)CCC3)cc1 (single isomer, unassigned) [Example 643]
4 | > 30000 nM | CC(C)(O)c1cnc(S(N)(=O)=NC(=O)Nc2c3c(cc4c2C(O)CC4)CCC3)s1 (single isomer, unassigned) [Example 654, (S,R) or (S,S)-N′-((-3-hydroxy-1,2,3,5,6,7-hexahydro-s-indacen-4-yl)carbamoyl)-5-(2-hydroxypropan-2-yl)thiazole-2-sulfonimidamide]
5 | > 30000 nM | CC(C)(O)c1cnc(S(N)(=O)=NC(=O)Nc2c3c(cc4c2CCC4O)CCC3)s1 (single isomer, unassigned) [Example 655, (S,R) or (S,S)-N′-((1-hydroxy-1,2,3,5,6,7-hexahydro-5-indacen-4-yl)carbamoyl)-5-(2-hydroxypropan-2-yl)thiazole-2-sulfonimidamide]
6 | > 30000 nM | CN(C)C(c1ccc(S(N)(=O)=NC(=O)Nc2c3c(cc4c2CCC4)CCC3)cc1)C(F)(F)F (single isomer, unassigned) [Example 663]

Same assay, conditions: hTHP-1 assay containing 2% fetal bovine serum, Table B2, class symbols; read-out: IC50

Row | SMILES | IC50
7 | CC(O)(CO)c1ncc(S(N)(=O)=NC(=O)Nc2c3c(c(C#N)c4c2CCC4)CCC3)s1 (single isomer, unassigned) [Example 636, (S,R) or (R,R)-N′-((8-cyano-1,2,3,5,6,7-hexahydro-s-indacen-4-yl)carbamoyl)-2-(1,2-dihydroxypropan-2-yl)thiazole-5-sulfonimidamide] | 40 to 200 nM
8 | CC(O)(CO)c1ncc(S(N)(=O)=NC(=O)Nc2c3c(c(C#N)c4c2CCC4)CCC3)s1 (single isomer, unassigned) [Example 637, (R,R) or (S,R)-N′-((8-cyano-1,2,3,5,6,7-hexahydro-s-indacen-4-yl)carbamoyl)-2-(1,2-dihydroxypropan-2-yl)thiazole-5-sulfonimidamide] | 200 to 1000 nM
9 | CC(OC(F)F)c1ccc(S(N)(=O)=NC(=O)Nc2c3c(cc4c2CCC4)CCC3)cc1 (single isomer, unassigned) [Example 638] | 1000 to 5000 nM
10 | CC(OC(F)F)c1ccc(S(N)(=O)=NC(=O)Nc2c3c(cc4c2CCC4)CCC3)cc1 (single isomer, unassigned) [Example 640] | 1000 to 5000 nM
11 | CC(OC(F)F)c1ccc(S(N)(=O)=NC(=O)Nc2c3c(cc4c2CCC4)CCC3)cc1 (single isomer, unassigned) [Example 641] | 1000 to 5000 nM
12 | CC(OC(F)F)c1ccc(S(N)(=O)=NC(=O)Nc2c3c(cc4c2CCC4)CCC3)cc1 (single isomer, unassigned) [Example 642] | 5000 to 30000 nM
13 | NS(=O)(=NC(=O)Nc1c2c(cc3c1CCC3)CCC2)c1ccc(C2CCCN2)cc1 (single isomer, unassigned) [Example 650, (R,S) or (S,S)-N′-((1,2,3,5,6,7-hexahydro-s-indacen-4-yl)carbamoyl)-4-(pyrrolidin-2-yl) benzenesulfonimidamide] | 5000 to 30000 nM
14 | CC(C)(O)c1cnc(S(N)(=O)=NC(=O)Nc2c3c(cc4c2C(O)CC4)CCC3)s1 (single isomer, unassigned) [Example 651, (R,S) or (R,R)-N′-((3-hydroxy-1,2,3,5,6,7-hexahydro-s-indacen-4-yl)carbamoyl)-5-(2-hydroxypropan-2-yl)thiazole-2-sulfonimidamide] | 1000 to 5000 nM
15 | CC(C)(O)c1cnc(S(N)(=O)=NC(=O)Nc2c3c(cc4c2C(O)CC4)CCC3)s1 (single isomer, unassigned) [Example 652, (R,R) or (R,S)-N′-((3-hydroxy-1,2,3,5,6,7-hexahydro-s-indacen-4-yl)carbamoyl)-5-(2-hydroxypropan-2-yl)thiazole-2-sulfonimidamide] | 1000 to 5000 nM
16 | CC(C)(O)c1cnc(S(N)(=O)=NC(=O)Nc2c3c(cc4c2C(O)CC4)CCC3)s1 (single isomer, unassigned) [Example 653, (S,S) or (S,R)-N′-((3-hydroxy-1,2,3,5,6,7-hexahydro-s-indacen-4-yl)carbamoyl)-5-(2-hydroxypropan-2-yl)thiazole-2-sulfonimidamide] | 5000 to 30000 nM
17 | CC(C)(O)c1cnc(S(N)(=O)=NC(=O)Nc2c3c(cc4c2CCC4O)CCC3)s1 (single isomer, unassigned) [Example 657, (R,R) or (R,S)-N′-((1-hydroxy-1,2,3,5,6,7-hexahydro-5-indacen-4-yl)carbamoyl)-5-(2-hydroxypropan-2-yl)thiazole-2-sulfonimidamide] | 1000 to 5000 nM
18 | CC(C)(O)c1cnc(S(N)(=O)=NC(=O)Nc2c3c(cc4c2CCC4O)CCC3)s1 (single isomer, unassigned) [Example 658, (R,S) or (R,R)-N′-((1-hydroxy-1,2,3,5,6,7-hexahydro-5-indacen-4-yl)carbamoyl)-5-(2-hydroxypropan-2-yl)thiazole-2-sulfonimidamide] | 5000 to 30000 nM
19 | CN(C)C(c1ccc(S(N)(=O)=NC(=O)Nc2c3c(cc4c2CCC4)CCC3)cc1)C1CC1 (single isomer, unassigned) [Example 659] | 5000 to 30000 nM
20 | CN(C)C(c1ccc(S(N)(=O)=NC(=O)Nc2c3c(cc4c2CCC4)CCC3)cc1)C1CC1 (single isomer, unassigned) [Example 660] | 200 to 1000 nM
21 | CN(C)C(c1ccc(S(N)(=O)=NC(=O)Nc2c3c(cc4c2CCC4)CCC3)cc1)C1CC1 (single isomer, unassigned) [Example 661] | 200 to 1000 nM
22 | Cc1c(C2CC2)cc2c(c1NC(=O)N=S(N)(=O)c1sc(C(C)(C)O)cc1F)CCC2 (single isomer, unassigned) [Example 685, (R) or (S)-N′-((6-cyclopropyl-5-methyl-2,3-dihydro-1H-inden-4-yl)carbamoyl)-3-fluoro-5-(2-hydroxypropan-2-yl)thiophene-2-sulfonimidamide] | 8 to 40 nM

Results, then the compound that gave them:

Row | IC50 | SMILES
23 | 200 to 1000 nM | CN(C)C(c1ccc(S(N)(=O)=NC(=O)Nc2c3c(cc4c2CCC4)CCC3)cc1)C(F)F (single isomer, unassigned) [Example 644, (R,R) or (S,R)-4-(-1-(dimethylamino)-2,2-difluoroethyl)-N′-((1,2,3,5,6,7-hexahydro-s-indacen-4-yl)carbamoyl) benzenesulfonimidamide]
24 | 200 to 1000 nM | CN(C)C(c1ccc(S(N)(=O)=NC(=O)Nc2c3c(cc4c2CCC4)CCC3)cc1)C(F)F (single isomer, unassigned) [Example 647, (S,R) or (R,R)-4-(1-(dimethylamino)-2,2-difluoroethyl)-N′-((1,2,3,5,6,7-hexahydro-s-indacen-4-yl)carbamoyl) benzenesulfonimidamide]
25 | 200 to 1000 nM | CN(C)C(c1ccc(S(N)(=O)=NC(=O)Nc2c3c(cc4c2CCC4)CCC3)cc1)C1CC1 (single isomer, unassigned) [Example 662]
26 | 200 to 1000 nM | CN(C)C(c1ccc(S(N)(=O)=NC(=O)Nc2c3c(cc4c2CCC4)CCC3)cc1)C(F)(F)F (single isomer, unassigned) [Example 667, (S,R) or (R,R)-4-(1-(dimethylamino)-2,2,2-trifluoroethyl)-N′-((1,2,3,5,6,7-hexahydro-s-indacen-4-yl)carbamoyl) benzenesulfonimidamide]
27 | 1000 to 5000 nM | CN(C)[C@H](c1ccc([S@](N)(=O)=NC(=O)Nc2c3c(cc4c2CCC4)CCC3)cc1)C(F)(F)F (single isomer, unassigned) [Example 668, (R,R) or (S,R)-4-(1-(dimethylamino)-2,2,2-trifluoroethyl)-N′-((1,2,3,5,6,7-hexahydro-s-indacen-4-yl)carbamoyl) benzenesulfonimidamide]

Same assay, conditions: hTHP-1 assay containing 2% fetal bovine serum, Table B2, given as bound; read-out: IC50

Row | IC50 | SMILES
28 | > 30000 nM | CN(C)C(c1ccc(S(N)(=O)=NC(=O)Nc2c3c(cc4c2CCC4)CCC3)cc1)C(F)F (single isomer, unassigned) [Example 645, (S,S) or (R,S)-4-(-1-(dimethylamino)-2,2-difluoroethyl)-N′-((1,2,3,5,6,7-hexahydro-s-indacen-4-yl)carbamoyl) benzenesulfonimidamide]
29 | > 30000 nM | CN(C)C(c1ccc(S(N)(=O)=NC(=O)Nc2c3c(cc4c2CCC4)CCC3)cc1)C(F)F (single isomer, unassigned) [Example 646, (R,S) or (S,S)-4-(-1-(dimethylamino)-2,2-difluoroethyl)-N′-((1,2,3,5,6,7-hexahydro-s-indacen-4-yl)carbamoyl) benzenesulfonimidamide]
30 | > 30000 nM | CC(C)(O)c1cnc(S(N)(=O)=NC(=O)Nc2c3c(cc4c2CCC4O)CCC3)s1 (single isomer, unassigned) [Example 656, (S,S) or (S,R)-N′-((1-hydroxy-1,2,3,5,6,7-hexahydro-5-indacen-4-yl)carbamoyl)-5-(2-hydroxypropan-2-yl)thiazole-2-sulfonimidamide]
31 | > 30000 nM | CN(C)C(c1ccc(S(N)(=O)=NC(=O)Nc2c3c(cc4c2CCC4)CCC3)cc1)C(F)(F)F (single isomer, unassigned) [Example 665, (S,S) or (R,S)-4-(1-(dimethylamino)-2,2,2-trifluoroethyl)-N′-((1,2,3,5,6,7-hexahydro-s-indacen-4-yl)carbamoyl) benzenesulfonimidamide]
32 | > 30000 nM | CN(C)C(c1ccc(S(N)(=O)=NC(=O)Nc2c3c(cc4c2CCC4)CCC3)cc1)C(F)(F)F (single isomer, unassigned) [Example 666, (R,S) or (S,S)-4-(1-(dimethylamino)-2,2,2-trifluoroethyl)-N′-((1,2,3,5,6,7-hexahydro-s-indacen-4-yl)carbamoyl) benzenesulfonimidamide]

From patent US20230051589A1, “COMPOUNDS AND COMPOSITIONS FOR TREATING CONDITIONS ASSOCIATED WITH NLRP ACTIVITY” (Novartis AG, priority 2018, published 2023)
